The values that follow come from publication PMC7939381, “MMP activation–associated aminopeptidase N reveals a bivalent 14-3-3 binding motif” (The Journal of Biological Chemistry, 2021).

Where a SMILES comes first, the peptide text is derived from it. [ ]: non-standard residue; d: D form. pT = C[C@@H](OP(=O)(O)O)[C@H](N)C(=O)O; pS = N[C@@H](COP(=O)(O)O)C(=O)O

The assay deals with T1, 14-3-3η (Homo sapiens, UniProt Q04917).
T1 construct: N-terminally His6-tagged 14-3-3 full-length proteins were expressed with heterologous bacterial expression; made in house
T1 sequence (Q04917 1-246): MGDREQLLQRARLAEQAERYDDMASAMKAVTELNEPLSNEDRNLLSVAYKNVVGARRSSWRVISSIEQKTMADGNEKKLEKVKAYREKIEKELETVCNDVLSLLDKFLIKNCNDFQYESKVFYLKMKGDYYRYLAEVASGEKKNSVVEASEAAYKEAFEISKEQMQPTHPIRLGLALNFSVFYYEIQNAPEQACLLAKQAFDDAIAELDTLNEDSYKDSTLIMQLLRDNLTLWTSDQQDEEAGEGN
Nature of the assay: direct binding FP assay, 14-3-3η. Particulars: FITC-labeled peptide; FP buffer pH 7.4; 60 min room temperature; mean ± S.D., n = 3; values for 14-16 are estimated (Fig. S4); read-out: KD toward 14-3-3η (FP assay). Here is the method:
For the FP assay, the 14-3-3 proteins were diluted to a protein-specific start concentration in FP buffer (10 mM HEPES, pH 7.4, 150 mM NaCl, 2 mM DTT, 0.01% Tween 20). DMSO stocks of peptides were diluted in FP buffer to a concentration of 30 nM. For the assay, 10 μl of FP buffer were pipetted in 20 wells of a 384-well Corning black round bottom plate. A dilution series with 10 μl of protein solution was performed, and 5 μl of peptide solution was added to each well for a final volume of 15 μl. The plate was incubated for 60 min at room temperature. Measurement was performed at 25 °C in a Tecan Spark20M plate reader (λex = 470 nm, λem = 525 nm). Data analysis was performed with GraphPad Prism (version 5.03), and KD values were determined via a nonlinear regression fit of dose-response curves with variable slope (four parameters).
In general, Kd refers to a measure of binding affinity in units of concentration. In the case of `CC(C)C[C@H](NC(=O)[C@@H](NC(=O)[C@@H](NC(=O)[C@H](C)NC(=O)[C@H](CO)NC(=O)[C@H](C)NC(=O)[C@@H]1CCCN1C(=O)[C@H](CC(N)=O)NC(=O)[C@@H](NC(=O)[C@@H](NC(=O)[C@H](C)NC(=O)[C@H](CO)NC(=O)[C@H](C)NC(=O)[C@H](CO)NC(=O)[C@@H]1CCCN1C(=O)[C@@H](NC(=O)[C@@H](NC(=O)[C@H](CO)NC(=O)[C@H](C)NC(=O)[C@@H](NC(=O)[C@@H]1CCCN1C(=O)[C@H](CO)NC(=O)[C@H](COP(=O)(O)O)NC(=O)[C@H](CC(N)=O)NC(=O)[C@H](C)NC(=O)[C@H](CC(N)=O)NC(=O)[C@H](CCCCN)NC(=O)[C@H](CC(N)=O)NC(=O)[C@H](CCCCN)NC(=O)[C@@H](N)CCC(=O)O)C(C)C)[C@@H](C)O)[C@@H](C)O)[C@@H](C)OP(=O)(O)O)[C@@H](C)O)[C@@H](C)O)[C@@H](C)O)C(=O)N[C@@H](CC(=O)O)C(=O)N[C@@H](CCC(N)=O)C(=O)N[C@@H](CO)C(=O)N[C@@H](CCCCN)C(=O)N[C@@H](C)C(=O)N[C@@H](Cc1c[nH]c2ccccc12)C(=O)N[C@@H](CC(N)=O)C(=O)N[C@@H](CCCNC(=N)N)C(=O)O` [compound 8] (H-EKNKNAN[pS]SPVASTTPSASA[pT]TNPASATTLDQSKAWNR-OH), the Kd was 18 ± 2.1 µM. Consider `CC(C)C[C@H](NC(=O)[C@@H](NC(=O)[C@@H](NC(=O)[C@H](C)NC(=O)[C@H](COP(=O)(O)O)NC(=O)[C@H](C)NC(=O)[C@@H]1CCCN1C(=O)[C@H](CC(N)=O)NC(=O)[C@@H](NC(=O)[C@@H](NC(=O)[C@H](C)NC(=O)[C@H](CO)NC(=O)[C@H](C)NC(=O)[C@H](CO)NC(=O)[C@@H]1CCCN1C(=O)[C@@H](NC(=O)[C@@H](NC(=O)[C@H](CO)NC(=O)[C@H](C)NC(=O)[C@@H](NC(=O)[C@@H]1CCCN1C(=O)[C@H](CO)NC(=O)[C@H](COP(=O)(O)O)NC(=O)[C@H](CC(N)=O)NC(=O)[C@H](C)NC(=O)[C@H](CC(N)=O)NC(=O)[C@H](CCCCN)NC(=O)[C@H](CC(N)=O)NC(=O)[C@H](CCCCN)NC(=O)[C@@H](N)CCC(=O)O)C(C)C)[C@@H](C)O)[C@@H](C)O)[C@@H](C)O)[C@@H](C)O)[C@@H](C)O)[C@@H](C)O)C(=O)N[C@@H](CC(=O)O)C(=O)N[C@@H](CCC(N)=O)C(=O)N[C@@H](CO)C(=O)N[C@@H](CCCCN)C(=O)N[C@@H](C)C(=O)N[C@@H](Cc1c[nH]c2ccccc12)C(=O)N[C@@H](CC(N)=O)C(=O)N[C@@H](CCCNC(=N)N)C(=O)O` [compound 10] (H-EKNKNAN[pS]SPVASTTPSASATTNPA[pS]ATTLDQSKAWNR-OH), for which the Kd is 0.42 ± 0.03 µM.

As to `CC(C)C[C@H](NC(=O)[C@@H](NC(=O)[C@@H](NC(=O)[C@H](C)NC(=O)[C@H](CO)NC(=O)[C@H](C)NC(=O)[C@@H]1CCCN1C(=O)[C@H](CC(N)=O)NC(=O)[C@@H](NC(=O)[C@@H](NC(=O)[C@H](C)NC(=O)[C@H](CO)NC(=O)[C@H](C)NC(=O)[C@H](CO)NC(=O)[C@@H]1CCCN1C(=O)[C@@H](NC(=O)[C@@H](NC(=O)[C@H](CO)NC(=O)[C@H](C)NC(=O)[C@@H](NC(=O)[C@@H]1CCCN1C(=O)[C@H](CO)NC(=O)[C@H](COP(=O)(O)O)NC(=O)[C@H](CC(N)=O)NC(=O)[C@H](C)NC(=O)[C@H](CC(N)=O)NC(=O)[C@H](CCCCN)NC(=O)[C@H](CC(N)=O)NC(=O)[C@H](CCCCN)NC(=O)[C@@H](N)CCC(=O)O)C(C)C)[C@@H](C)O)[C@@H](C)O)[C@@H](C)O)[C@@H](C)O)[C@@H](C)O)[C@@H](C)O)C(=O)N[C@@H](CC(=O)O)C(=O)N[C@@H](CCC(N)=O)C(=O)N[C@@H](COP(=O)(O)O)C(=O)N[C@@H](CCCCN)C(=O)N[C@@H](C)C(=O)N[C@@H](Cc1c[nH]c2ccccc12)C(=O)N[C@@H](CC(N)=O)C(=O)N[C@@H](CCCNC(=N)N)C(=O)O` [compound 13] (H-EKNKNAN[pS]SPVASTTPSASATTNPASATTLDQ[pS]KAWNR-OH; N-terminus assumed), the Kd is more than 83 µM.
